Measurements: patent US20130183294A1, “METHODS OF USING FGF19 MODULATORS” (GENENTECH, INC., priority 2012, published 2013)

How the values were obtained:
[1] = system: Caco-2 cells; test: Gene expression (qRT-PCR) in intestinal epithelial (Caco-2) cells; format: cell-based, human; conditions: 50 μM, 24 h
[2] = system: Caco-2 monolayers; test: Caco-2 permeability and taurocholate transport in transwell system; format: cell-based, human; conditions: 50 μM, 24 h, p value<0.001
Method: The Caco-2 human adenocarcinoma cell line and Eagle's Minimum Essential Medium (EMEM) were purchased from ATCC (American Type Culture Collection, Rockville, Md.). Caco-2 cells were seeded on transwell inserts (0.4 μm pore size, Corning, N.Y.) at a density of 1.5×10^5 cells/mL and cultured for 23 days with media changes 3 times per week. On day 23, the cells were treated with either isotype control antibody (100 μg/mL), FGF19 (gp120, Genentech Inc., CA) (500 ng/mL), anti-FGF19 (100 μg/mL), DCA (Sigma-Aldrich, St. Louis, Mo.) (50 μM) or DCA (50 μM) plus anti-FGF19 (100 μg/mL) for 24 h prior to the permeability experiments. The monolayers were equilibrated for 30 min in transport buffer (HBSS with 10 mM HEPES, pH 7.4) at 37° C. and the transepithelial electrical resistance [TEER cm2), membrane area 1.12 cm^2] of each well was measured using the volt-ohm meter and STX-2 electrode. The permeabilities of lucifer yellow (LY), and taurocholate were evaluated in the apical to basolateral (A-B) direction. […] The apparent permeability for taurocholate, and LY (Papp) was calculated using the following equation: Papp=dQ/dt×1/C0A where dQ/dt is the rate of compound appearance in the receiver compartment, C0 is the concentration in the donor compartment and A is the surface area of the insert. […]

## C[C@H](CCC(=O)O)[C@H]1CC[C@H]2[C@@H]3CC[C@@H]4C[C@H](O)CC[C@]4(C)[C@H]3C[C@H](O)[C@]12C [DCA, deoxycholic acid]
[1]; p value<0.0001
  IBABP expression increase: > 30 fold
[1]; p value<0.0015
  Ost-α expression increase: 2 fold
[1]; p value<0.05
  Ost-β expression increase: 1.3 fold
[2]
  taurocholate uptake, reduction vs. control: −80%
